Data set [1] deals with S. mutans ATCC 35668. As to the kind of experiment: Bactericidal kinetics (time-kill). Format: cell-based, Streptococcus mutans. The protocol: (§1) Bactericidal kinetics was assessed by incubating 5 × 10^5 CFU/ml of mid-log-phase bacteria with the OAK for 3 hr at 37 °C with shaking. Aliquots were taken at t = 0, 0.5, 1, 2 and 3 hr, subjected to serial 10-fold dilutions in saline (NaCl = 0.85%) and plated for enumeration after 24–48 hr incubation at 37 °C.

Data set [2] has as its system S. aureus 29213. The class given is cell-based, Staphylococcus aureus. The protocol: (§2) Minimal inhibitory concentration (MIC) was determined using the microdilution assay. Mid-log-phase bacteria at 5 × 10^5 CFU/ml were incubated in a 96-well plate with serial two-fold dilutions of the tested compound for 18–24 hr at 37 °C (final volume of 200 µl). O.D. at 620 nm was measured (Synergy HT, BioTek Instruments, Winooski, VT, USA), and the MIC was determined as the lowest concentration for which no increase in O.D. was detected.

Data set [3] concerns Fusobacterium. The class given is cell-based, Fusobacterium nucleatum. To be noted: 48 h. The text has this: (§3) Gram-negative bacteria tested were: ATCC strains Escherichia coli 25922, 43894, Pseudomonas aeruginosa 27853, 9027, Acinetobacter baumannii 19606, A. caloaceticus 31299, Salmonella Typhimurium 14028, Fusobacterium nucleatum 23726, Porphyromonas gingivalis 53977, clinical isolates E. coli 14182, 14384, U-16327, U-16329, P. aeruginosa 1278, Klebsiella pneumoniae 1287, K2–224, C2, A. baumannii 1279, 1280, 1281, F. nucleatum PK 1594, the engineered E. coli ML-35p and the isogenic K-12 pair AG100, AG100a (ΔacrAB). Dental related bacteria (generous gift of Prof. Doron Steinberg and Gilad Bachrach from the Hebrew University of Jerusalem) appear in bold characters.
(§4) Staphylococci, Bacilli, Escherichia, Pseudomonas, Acinetobacter, Salmonella and Klebsiella species were grown in Luria Bertani broth (LB; 5 gr/l NaCl, 5 gr/l yeast extract, 10 gr/l tryptone). Enterococci and E. coli ML-35p were grown in Tryptic Soy Broth (TSB). Listeria and Streptococci were grown in Brain Heart Infusion (BHI). All bacteria were grown over-night at 37 °C with shaking. S. mutans 35668 plated on BHI agar for enumeration was grown for 48 hr. […]
(§5) Minimal inhibitory concentration (MIC) was determined using the microdilution assay. […] O.D. at 620 nm was measured (Synergy HT, BioTek Instruments, Winooski, VT, USA), and the MIC was determined as the lowest concentration for which no increase in O.D. was detected.

In data set [4] the test system is Porphyromonas. The class given is cell-based, Porphyromonas gingivalis. The conditions noted are these: 48 h.
Text: as §3, §4, §5

Data set [5] relates to E. coli. The class given is cell-based, Escherichia coli. To be noted: 48 h. The protocol:
(§6) Staphylococci, Bacilli, Escherichia, Pseudomonas, Acinetobacter, Salmonella and Klebsiella species were grown in Luria Bertani broth (LB; 5 gr/l NaCl, 5 gr/l yeast extract, 10 gr/l tryptone). Enterococci and E. coli ML-35p were grown in Tryptic Soy Broth (TSB). Listeria and Streptococci were grown in Brain Heart Infusion (BHI). All bacteria were grown over-night at 37 °C with shaking. S. mutans 35668 plated on BHI agar for enumeration was grown for 48 hr. S. mutans UA159 was grown in 5% CO2 enriched atmosphere. Fusobacterium and Porphyromonas were grown in Wilkins-Chalgren growth medium and an anaerobic atmosphere.
as §5

The test system of data set [6] is E. coli ML-35p. In words: Bactericidal kinetics (time-kill). The class given is cell-based, Escherichia coli. To be noted: within 2 hours exposure at ≥MIC; 5 × 10^5 CFU/ml, 37 °C. The protocol:
as §1

Data set [7] deals with S. mutans. As to the kind of experiment: microbe, parasite or virus in culture. Format: cell-based, Streptococcus mutans. The protocol:
as §6, §2

The subject of data set [8] is E. coli 25922. The class given is cell-based, Escherichia coli. The protocol:
as §2

Data set [9] deals with E. coli AG100. Format: cell-based, Escherichia coli. To be noted: wild type AG100.
Text: as §3, §2

The test system of data set [10] is E. coli AG100A (ΔacrAB). Format: cell-based, Escherichia coli. The conditions noted are these: efflux deletion-mutant AG100A.
Text: as §3, §2

A short description of data set [11]: Self-assembly in solution by light scattering. The class given is physicochemical. The conditions noted are these: for critical aggregation concentration: light scattering at 90°, 400 nm. The protocol: To assess the OAK’s self-assembly in solution, serial two-fold dilutions of the OAK (initial concentration of 200 µM) were prepared in phosphate buffered saline (PBS; 10 mM Na2HPO4, 154 mM NaCl, pH = 7.4) and incubated for 2 hr at room temperature (RT). Light scattering at a 90° angle was measured through a 1 nm slit while holding both excitation and emission at 400 nm (Spectrophotometer Fluorolog-3 FL3–22; Horiba Jobin Yvon, Edison, NJ, USA). To evaluate the disassembly of these aggregates upon bacterial exposure, an OAK solution (200 µM) was incubated (2 hr in PBS, at RT) after which, bacteria were added (10^5 CFU/ml) and the light scattering evolution of these suspensions was monitored as described above.

The subject of data set [12] is Enterococci. Format: cell-based. The protocol: as §6, §2
Data set [13] has as its system Listeria. The class given is cell-based. The protocol: as §6, §2
In data set [14] the test system is Staphylococci. The class given is cell-based. The protocol:
as §6, §2

Data set [15] relates to Streptococci. The class given is cell-based. The protocol: as §6, §2
For data set [16], the system named is GPB and GNB. In words: Effect observed at low concentrations, analog series. Format: cell-based. To be noted: summary of this and previous studies. The protocol:
Table 2 Modulating biophysical properties of a core sequence by conjugating an N-terminal acyl. | column: Effect observed at low concentrations (<3 µM)

Where a SMILES comes first, the peptide text is derived from it. [ ]: non-standard residue; d: D form. The star is where a group is joined. Myristoyl = CCCCCCCCCCCCCC(=O)*; 12Ado = NCCCCCCCCCCCC(=O)O A value given as a limit tells only on which side of the number the result lay.

`CCCCCCCCCCCCCC(=O)N[C@@H](CCCCN)C(=O)N[C@@H](CCCCN)C(=O)NCCCCCCCCCCCC(=O)N[C@@H](CCCCN)C(N)=O` [C14KKc12K] (Myristoyl-KK[12Ado]K-NH2) showed a bactericidal concentration in [1] (time-kill kinetics in BHI) of 1.56 µM. Further, the reduction of viability was ~ 2 log units in [1] (within 2 hours exposure to 1.56 µM, 5 × 10^5 CFU/ml, 37 °C) and greater than 2 log-unit in data set [6]. For the same molecule, the MIC was 3 µM in data set [2]; 0.78 µM in [7]; 6 µM in [8]; 3 µM in data set [9]; 3 µM in data set [10]. The MIC range in data set [3] was 6.25 µM; in data set [4], 3.12 µM; in data set [12], 3.12 to 6.25 µM; in data set [13] it was 3.12 µM; in data set [14] it was 1.56 to 3.12 µM; in data set [15], 0.78 to 3.12 µM. In addition, in data set [5], the “MIC E.c.” value was determined as 3.12 µM. In [11] (OAK 200 µM in PBS, 2 hr RT, then 10^5 CFU/ml S. aureus or E. coli, compared with C12KKc12K), the “disaggregation in presence of bacteria (light scattering)” value is “greater tendency to disaggregate in presence of bacteria”. Further, the critical aggregation concentration came to 23 ± 3 µM in data set [11] (PBS pH 7.4, 2 hr at RT) and 8 ± 1 µM in data set [11] (supernatant of centrifuged saliva). Moreover, in data set [11] (PBS pH 7.4, 2 hr at RT, two-fold dilutions from 200 µM), the “concentration of sharp divergence of light scattering pattern (higher amplitudes)” value is on record as ~ 20 µM. Further, the “Effect observed at low concentrations (<3 µM)” value in [16] was “High efficacy in membranes disruption leading to a bactericidal mode of action in both GPB & GNB”.

These data come from PMC5438364, “A broad-spectrum bactericidal lipopeptide with anti-biofilm properties” (Scientific Reports, 2017).
